Values belong to the molecule of their own block, whether it stands above or below them.
Key:
[1] = Release kinetics of leuprolide acetate from PLGA microparticles (UV absorption of supernatant); format: physicochemical
Procedure: The release kinetics of leuprolide acetate from the PLGA microparticles prepared as described herein was determined and the results are shown in FIG. 1. Concentration of drug in the supernatant was measured by ultraviolet absorption. […] Initial burst release occurs due to the fast dissolution of peptide located at the microparticle surface followed by a time lag of 4-5 days. […] During the middle portion of the curve, peptide release occurs at a near constant rate.
FIG. 2 compares the release curve of FIG. 1 for 10% RG 502H with a published release curve for leuprolide acetate from microparticles formed by conventional oil-in-water emulsion with poly(vinyl alcohol) as emulsifier (D'Souza et al., 2005, AAPS PHARM. Sci. Tech. 6(4), E553).

[2] = Encapsulation efficiency of drug in PLA/PLGA microparticles prepared with hydroxyapatite gel (UV absorption); format: physicochemical; details: for pH of aqueous suspension giving best encapsulation efficiency: hydroxyapatite gel suspension, PLA/PLGA polymers
Procedure: Leuprolide acetate and poly(lactic acid-co-glycolic acid) (PLGA) RG502H or PLA R202H were dissolved in a 24/76 (v/v) methanol/dichloromethane mixture at a concentration of 20% polymer and 10% leuprolide (w/v) to prepare the polymer-drug solution. An aqueous suspension of hyroxyapatite was prepared by dissolving 6 g of CaO in 400 ml water. Then phosphoric acid was added to adjust the pH of the aqueous suspension to between 9.0 and 10.0. Hydroxyapatite gel was formed in situ in the aqueous suspension under these conditions by the reaction 10 CaO+6 H3PO4=Ca10(PO4)6(OH)2+8 H2O. The drug/polymer solution (2 or 3 ml) was dispersed into the aqueous suspension medium. The dispersion was initially homogenized by a high-shear mixer at 5,000 or more rpm for 5 minutes. The solvents were then evaporated by stirring at 600 rpm for 1 hour or longer. Then concentrated HCl was added slowly until the hydroxyapatite dissolved and the suspension cleared. Hydroxyapatite is dissolved by the reaction Ca10(PO4)6(OH)2+20 HCl=10 CaCl2+6 H3PO4+2 H2O. The solidified microparticles were recovered by centrifugation and filtration.
Encapsulation efficiency refers to the mass of drug recovered in microparticles divided by the starting mass of drug in the polymer-drug phase. To quantify drug in microparticles, the microparticles were first dissolved in an ethanol/dichloroethane (28/72 v/v) mixture. The drug content of the solution was then measured by ultraviolet absorption.
In other experiments, the pH of the suspending medium was varied. […] Small anionic and cationic small molecule drugs were also tested. […] Verapamil HCl and nicardipine HCl were the small-molecule amine-containing drugs tested. Piroxicam, […], and salicylic acid were the small molecule anionic drugs tested.

Release curve compared with published curve for conventional o/w emulsion (poly(vinyl alcohol)) microparticles ([1]; 10% RG 502H, FIG. 2, versus D'Souza et al. 2005): nearly identical
Release profile (shape) ([1]; PLGA microparticles, FIG. 1): typical tri-phase
Time lag after initial burst release ([1]; PLGA microparticles, FIG. 1): 4 to 5 days
Encapsulation efficiency ([2]; pH of the suspending medium 7.0): 90%
Encapsulation efficiency ([2]; pH of the suspending medium pH 9.0 to pH 10.0, hydroxyapatite gel): ≥ 95%
Structure (SMILES): CCNC(=O)[C@@H]1CCCN1C(=O)[C@H](CCCNC(=N)N)NC(=O)[C@H](CC(C)C)NC(=O)[C@@H](CC(C)C)NC(=O)[C@H](Cc1ccc(O)cc1)NC(=O)[C@H](CO)NC(=O)[C@H](Cc1c[nH]c2ccccc12)NC(=O)[C@H](Cc1c[nH]cn1)NC(=O)[C@@H]1CCC(=O)N1 [leuprolide acetate, Leuprolide acetate]

pH of aqueous suspension giving best encapsulation efficiency [2]: ~5.0
Structure (SMILES): COc1ccc2cc([C@H](C)C(=O)O)ccc2c1 [naproxen acid]

pH of aqueous suspension giving best encapsulation efficiency [2]: ~5.0
Structure (SMILES): CN1C(C(=O)Nc2ccccn2)=C(O)c2ccccc2S1(=O)=O [piroxicam]

pH of aqueous suspension giving best encapsulation efficiency [2]: ~5.0
Structure (SMILES): O=C(O)c1ccccc1O [salicylic acid]

From patent US8034382B2, “Preparation method for biodegradable micro-particles containing drugs” (The Board of Trustees of the University of Arkansas, priority 2008, dated 2011)
